In patent US20180298010A1, “PRMT5 INHIBITORS AND USES THEREOF” (Epizyme, Inc., priority 2012, published 2018):

Columns and labels:
Z-138 cells = assay: Z-138 Proliferation Assay (Cell Titer Glo, 5 days); type: cell-based; conditions: Homo sapiens, 120 h
From the text: Z-138 Proliferation Assay
Z-138 suspension cells were purchased from ATCC (American Type Culture Collection, Manassas, Va.). RPMI/Glutamax medium, penicillin-streptomycin, heat inactivated fetal bovine serum were purchased from Life Technologies, Grand Island, N.Y., USA. V-bottom polypropylene 384-well plates were purchased from Greiner Bio-One, Monroe, N.C., USA. Cell culture 384-well white opaque plates were purchased from Perkin Elmer, Waltham, Mass., USA. Cell-Titer Glo® was purchased from Promega Corporation, Madison, Wis., USA. SpectraMax M5 plate reader was purchased from Molecular Devices LLC, Sunnyvale, Calif., USA.
Z-138 suspension cells were maintained in growth medium (RPMI 1640 supplemented with 10% v/v heat inactivated fetal bovine serum and cultured at 37° C. under 5% CO2 Under assay conditions, cells were incubated in assay medium (RPMI 1640 supplemented with 10% v/v heat inactivated fetal bovine serum and 100 units/mL penicillin-streptomycin) at 37° C. under 5% CO2.
For the assessment of the effect of compounds on the proliferation of the Z-138 cell line, exponentially growing cells were plated in 384-well white opaque plates at a density of 10,000 cells/ml in a final volume of 50 μl of assay medium. A compound source plate was prepared by performing triplicate nine-point 3-fold serial dilutions in DMSO, beginning at 10 mM (final top concentration of compound in the assay was 20 μM and the DMSO was 0.2%). A 100 nL aliquot from the compound stock plate was added to its respective well in the cell plate. […] After addition of compounds, assay plates were incubated for 5 days at 37° C., 5% CO2, relative humidity>90%.
Cell viability was measured by quantitation of ATP present in the cell cultures, adding 35 μl of Cell Titer Glo® reagent to the cell plates. Luminescence was read in the SpectraMax M5 microplate reader. The concentration of compound inhibiting cell viability by 50% was determined using a 4-parametric fit of the normalized dose response curves.

PRMT5/MEP50 = target: T1, PRMT5/MEP50 (Homo sapiens, UniProt O14744); assay: PRMT5 Biochemical Assay (PRMT5/MEP50 enzyme assay on peptide substrate, 3H-SAM Flashplate)
T1 construct: Flag-PRMT5; 6His-MEP50
T1 sequence (O14744 with tags, fused parts or gaps): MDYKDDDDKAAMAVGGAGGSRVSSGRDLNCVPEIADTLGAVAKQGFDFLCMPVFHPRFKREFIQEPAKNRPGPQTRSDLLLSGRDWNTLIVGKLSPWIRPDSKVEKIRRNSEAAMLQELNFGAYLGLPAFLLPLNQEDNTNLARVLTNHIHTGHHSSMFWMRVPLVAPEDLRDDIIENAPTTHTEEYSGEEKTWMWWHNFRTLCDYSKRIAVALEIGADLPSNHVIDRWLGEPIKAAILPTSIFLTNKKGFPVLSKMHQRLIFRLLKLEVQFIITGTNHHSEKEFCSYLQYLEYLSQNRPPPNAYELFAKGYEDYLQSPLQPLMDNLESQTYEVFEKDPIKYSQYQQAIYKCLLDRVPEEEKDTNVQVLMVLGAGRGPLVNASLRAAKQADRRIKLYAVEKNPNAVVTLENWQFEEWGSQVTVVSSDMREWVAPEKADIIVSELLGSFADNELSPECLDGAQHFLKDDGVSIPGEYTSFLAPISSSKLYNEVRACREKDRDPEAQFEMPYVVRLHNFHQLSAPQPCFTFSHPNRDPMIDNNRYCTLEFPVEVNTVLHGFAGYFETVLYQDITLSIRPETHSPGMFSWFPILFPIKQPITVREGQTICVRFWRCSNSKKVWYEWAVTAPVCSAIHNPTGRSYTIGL
T1 sequence (Q9BQA1 with tags, fused parts or gaps partner): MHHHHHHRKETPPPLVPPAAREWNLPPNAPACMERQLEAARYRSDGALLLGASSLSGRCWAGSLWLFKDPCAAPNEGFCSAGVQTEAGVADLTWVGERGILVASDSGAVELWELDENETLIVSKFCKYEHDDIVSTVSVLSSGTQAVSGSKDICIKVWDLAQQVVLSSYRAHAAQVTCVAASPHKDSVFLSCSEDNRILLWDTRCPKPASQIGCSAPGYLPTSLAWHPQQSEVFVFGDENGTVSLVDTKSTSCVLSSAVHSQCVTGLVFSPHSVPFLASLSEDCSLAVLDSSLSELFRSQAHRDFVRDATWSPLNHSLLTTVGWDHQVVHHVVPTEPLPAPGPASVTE
How it was run: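 FLAG-PRMT5/His-MEP50 from Sf9 cells (4 nM) preincubated 30 min at 25 °C with compound in 20 mM Bicine pH 7.6, 1 mM TCEP, 1% DMSO. Reaction started with 75 nM 3H-SAM on 40 nM biotinylated H4 1-15 peptide, stopped with cold SAM. Bound 3H-peptide counted on streptavidin Flashplates, normalised to DMSO and 100 uM SAH controls.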

[1] = tested on: Symmetric di-Methyl Arginine in Z-138 cells; assay: Z-138 Methylation Assay (In Cell Western for symmetric di-methyl arginine and DNA content); type: cell-based; conditions: Homo sapiens, read-out: ICW EC50
From the text: Z-138 suspension cells were purchased from ATCC (American Type Culture Collection, Manassas, Va.). RPMI/Glutamax medium, penicillin-streptomycin, heat inactivated fetal bovine serum, and D-PBS were purchased from Life Technologies, Grand Island, N.Y., USA. Odyssey blocking buffer, 800CW goat anti-rabbit IgG (H+L) antibody, and Licor Odyssey infrared scanner were purchased from Licor Biosciences, Lincoln, Nebr., USA. Symmetric di-methyl arginine antibody was purchased from EMD Millipore, Billerica, Mass., USA. 16% Paraformaldehyde was purchased from Electron Microscopy Sciences, Hatfield, Pa., USA.
Z-138 suspension cells were maintained in growth medium (RPMI 1640 supplemented with 10% v/v heat inactivated fetal bovine serum and 100 units/mL penicillin-streptomycin) and cultured at 37° C. under 5% CO2 […]
Calculations: First, the ratio for each well was determined by:
Each plate included fourteen control wells of DMSO only treatment (minimum inhibition) as well as fourteen control wells for maximum inhibition treated with 3 μM of a reference compound (Background wells). The average of the ratio values for each control type was calculated and used to determine the percent inhibition for each test well in the plate. […] Percent inhibition was determined and IC50 curves were generated using triplicate wells per concentration of compound.

| Structure (SMILES) | IC50 (PRMT5/MEP50) | EC50 [1] | EC50 (Z-138 cells) |
| --- | --- | --- | --- |
| Cn1cnc2ccc(-c3cccc(OCC(O)CN4CCc5ccccc5C4)c3)cc21 (stereo not shown) [Compound 45, 1-(3,4-dihydroisoquinolin-2(1H)-yl)-3-(3-(1-methyl-1H-benzo[d]imidazol-6-yl)phenoxy)propan-2-ol] |  |  | 1 to 10 µM |
| Cn1cnc2ccc(-c3ccnc(NCC(O)CN4CCc5ccccc5C4)c3)cc21 (stereo not shown) [Compound 118, 1-(3,4-Dihydroisoquinolin-2(1H)-yl)-3-((4-(1-methyl-1H-benzo[d]imidazol-6-yl)pyridin-2-yl)amino)propan-2-ol] |  |  | 1 to 10 µM |
| Cn1cnc2ccc(-c3cccc(OC[C@@H](O)CN4CCc5ccccc5C4)c3)cc21 [Compound 173] |  |  | 1 to 10 µM |
| Cn1cnc2ccc(-c3cccc(OC[C@H](O)CN4CCc5ccccc5C4)c3)cc21 [Compound 174] |  |  | 1 to 10 µM |
| Cn1cnc2ccc(-c3cccc(OCC(O)CN4CCc5ccccc5C4)c3)nc21 (stereo not shown) [Compound 189, 1-(3,4-dihydroisoquinolin-2(1H)-yl)-3-(3-(3-methyl-3H-imidazo[4,5-b]pyridin-5-yl)phenoxy)propan-2-ol] |  |  | 0.101 to 1 µM |
| O=C(Cn1cnc2ccc(-c3cccc(OCC(O)CN4CCc5ccccc5C4)c3)cc21)N1CCOCC1 (stereo not shown) [Compound 264] | 0.101 to 1 µM |  | 1 to 10 µM |
| Cc1ncc2ccc(-c3cccc(OCC(O)CN4CCc5ccccc5C4)c3)cn12 (stereo not shown) [Compound 266, 1-(3,4-dihydroisoquinolin-2(1H)-yl)-3-(3-(3-methylimidazo[1,5-a]pyridin-6-yl)phenoxy)propan-2-ol] |  |  | 1 to 10 µM |
| Cn1cnc2ccc(-c3ccnc(NC[C@H](O)CN4CCc5ccccc5C4)c3)cc21 [Compound 275] |  |  | 1 to 10 µM |
| Cn1cnc2ccc(-c3ccnc(NC[C@@H](O)CN4CCc5ccccc5C4)c3)cc21 [Compound 276] |  |  | 1 to 10 µM |
| OC(COC1CCCCCC1)CN1CCc2ccccc2C1 (stereo not shown) [Compound 309] | 1 to 10 µM |  |  |
| OC(COC1CCOCC1)CN1CCc2ccccc2C1 (stereo not shown) [Compound 310] | 10 to 40 µM |  |  |
| CC(=O)N1CC(Nc2cc(CNCC(O)CN3CCc4ccccc4C3)ncn2)C1 (stereo not shown) [Compound 311] | > 10 µM |  |  |
| CC(=O)N1CCC(Nc2cc(CNCC(O)CN3CCc4ccccc4C3)ncn2)CC1 (stereo not shown) [Compound 312] | > 10 µM |  |  |
| CC(=O)N1CCC(Nc2cc(CNCC(O)CN3CCc4ccccc4C3)ccn2)CC1 (stereo not shown) [Compound 313] | > 10 µM |  |  |

Continued, in another order:

| IC50 (PRMT5/MEP50) | EC50 [1] | Structure (SMILES) | EC50 (Z-138 cells) |
| --- | --- | --- | --- |
| 0.101 to 1 µM |  | OC(COc1cccc(-c2ccc3c(c2)OCO3)c1)CN1CCc2ccccc2C1 (stereo not shown) [Compound 59, 1-(3-(benzo[d][1,3]dioxol-5-yl)phenoxy)-3-(3,4-dihydroisoquinolin-2(1H)-yl)propan-2-ol] | 10 to 40 µM |
| 0.101 to 1 µM |  | OC(COc1cccc(-c2ccc3nn[nH]c3c2)c1)CN1CCc2ccccc2C1 (stereo not shown) [Compound 84, 1-(3-(1H-benzo[d][1,2,3]triazol-6-yl)phenoxy)-3-(3,4-dihydroisoquinolin-2(1H)-yl)propan-2-ol] | 1 to 10 µM |
|  | 1 to 10 µM | OC(COc1cccc(-c2ccc3ncsc3c2)c1)CN1CCc2ccccc2C1 (stereo not shown) [Compound 123, 1-(3-(benzo[d]thiazol-6-yl)phenoxy)-3-(3,4-dihydroisoquinolin-2(1H)-yl)propan-2-ol] | 10 to 40 µM |
| 0.101 to 1 µM |  | COC(=O)c1cccc(-c2cccc(OCC(O)CN3CCc4ccccc4C3)c2)c1 (stereo not shown) [Compound 135] | > 20 µM |
| 0.101 to 1 µM |  | CN1CCN(c2ccc(-c3cccc(OCC(O)CN4CCc5ccccc5C4)c3)cn2)CC1 (stereo not shown) [Compound 149] | 1 to 10 µM |
| 1 to 10 µM |  | COC(=O)c1cncc(-c2cccc(OCC(O)CN3CCc4ccccc4C3)c2)c1 (stereo not shown) [Compound 180] | > 20 µM |
| 0.101 to 1 µM |  | OC(COc1cccc(-c2ccc3ncn(C4CNC4)c3c2)c1)CN1CCc2ccccc2C1 (stereo not shown) [Compound 208, 1-(3-(1-(azetidin-3-yl)-1H-benzo[d]imidazol-6-yl)phenoxy)-3-(3,4-dihydroisoquinolin-2(1H)-yl)propan-2-ol] | 1 to 10 µM |
| 0.101 to 1 µM |  | CNC(=O)Cn1cnc2ccc(-c3cccc(OCC(O)CN4CCc5ccccc5C4)c3)cc21 (stereo not shown) [Compound 262] | 1 to 10 µM |
